Source: the supplement of paper PMC11061612

What was measured:
Test in all cases: combination Emax (second highest fraction inhibited in the dose matrix, 72 h); higher = more inhibition; extreme values may be limits of the assay
PEO1 (Ovarian Carcinoma) = tested on: PEO1 (Ovarian Carcinoma)
Summary of the method: (§1)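 Bliss excess equals the observed combination effect minus the expected value EA + EB − EA·EB, where EA and EB are the effects of each agent alone. Combination Emax is the second-highest inhibition within the matrix. Inhibition was scaled from CellTiter-Glo 2.0 luminescence, with 0 set by vehicle wells and 1 by blank wells, after 72 hours of two-drug dosing of cells plated in 1536-well plates.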

[1] = tested on: JIMT-1 (Breast Carcinoma)
Summary of the method: as §1

[2] = tested on: NCI-H716 (Colorectal Carcinoma)
Summary of the method: as §1

[3] = tested on: CGTH-W-1 (Thyroid Gland Carcinoma)
Summary of the method: as §1

COLO-792 (Melanoma) = tested on: COLO-792 (Melanoma)
Summary of the method: as §1

EB2 (Burkitt's Lymphoma) = tested on: EB2 (Burkitt's Lymphoma)
Summary of the method: as §1

[4] = tested on: HCC1428 (Breast Carcinoma)
Summary of the method: as §1

[5] = tested on: NCI-H2228 (Lung Adenocarcinoma)
Summary of the method: as §1

NB13 (Neuroblastoma) = tested on: NB13 (Neuroblastoma)
Summary of the method: as §1

A101D (Melanoma) = tested on: A101D (Melanoma)
Summary of the method: as §1

[6] = tested on: GA-10 (Burkitt's Lymphoma)
Summary of the method: as §1

EW-7 (Ewing's Sarcoma) = tested on: EW-7 (Ewing's Sarcoma)
Summary of the method: as §1

[7] = tested on: Jurkat (T-Lymphoblastic Leukemia)
Summary of the method: as §1

WM1552C (Melanoma) = tested on: WM1552C (Melanoma)
Summary of the method: as §1

[8] = tested on: UACC-812 (Breast Carcinoma)
Summary of the method: as §1

[9] = tested on: KYSE-140 (Esophageal Squamous Cell Carcinoma)
Summary of the method: as §1

[10] = tested on: MDA-MB-436 (Breast Carcinoma)
Summary of the method: as §1

[11] = tested on: JHU-022 (Oral Cavity Carcinoma)
Summary of the method: as §1

KP-N-YN (Neuroblastoma) = tested on: KP-N-YN (Neuroblastoma)
Summary of the method: as §1

[12] = tested on: OACp4C (Esophageal Adenocarcinoma)
Summary of the method: as §1

With `COc1nnc2ccc(N3CCC(c4ccc(OCCN5CCN(C)C(=O)[C@H]5C)cc4)CC3)nn12` [AZD5153] + Cn1cnc2c(F)c(Nc3ccc(Br)cc3Cl)c(C(=O)NOCCO)cc21 [Selumetinib] (first compound max 1 µM, 7x7, partner max 10 µM) the “combination Emax” value (PEO1 (Ovarian Carcinoma)) was 0.483, the “combination Emax” value [1] was 0.426 and the “combination Emax” value [2] was 0.879. The “combination Emax” value [3] was 0.356, the “combination Emax” value (COLO-792 (Melanoma)) was 0.882 and the “combination Emax” value (EB2 (Burkitt's Lymphoma)) was 0.502. The “combination Emax” value [4] was 0.728, the “combination Emax” value [5] was 0.428 and the “combination Emax” value (NB13 (Neuroblastoma)) was 0.565. The “combination Emax” value (A101D (Melanoma)) was 0.872, the “combination Emax” value [6] was 0.714 and the “combination Emax” value (EW-7 (Ewing's Sarcoma)) was 0.357. For the same compound, the “combination Emax” value [7] was 0.594, the “combination Emax” value (WM1552C (Melanoma)) was 0.514 and the “combination Emax” value [8] was 0.331. The “combination Emax” value [9] was 0.557, the “combination Emax” value [10] was 0.217 and the “combination Emax” value [11] was 0.508. The “combination Emax” value (KP-N-YN (Neuroblastoma)) was 0.369 and the “combination Emax” value [12] was 0.945.
For `Cc1c2c(nn1C)CSCc1cc(n(C)n1)CSc1cc(c3ccccc3c1)OCCCc1c(C(=O)O)n(C)c3c-2c(Cl)ccc13` [AZD5991] + C1CN(CCC1(C(=O)N[C@@H](CCO)C2=CC=C(C=C2)Cl)N)C3=NC=NC4=C3C=CN4 [Capivasertib] (first compound max 1 µM, 7x7, partner max 3 µM), the “combination Emax” value (PEO1 (Ovarian Carcinoma)) was 0.207, the “combination Emax” value [1] was 0.21 and the “combination Emax” value [2] was 0.401. The “combination Emax” value [3] was 0.265, the “combination Emax” value (COLO-792 (Melanoma)) was 0.988 and the “combination Emax” value (EB2 (Burkitt's Lymphoma)) was 0.479. For the same compound, the “combination Emax” value [4] was 0.977, the “combination Emax” value [5] was 0.426 and the “combination Emax” value (NB13 (Neuroblastoma)) was 0.349. The “combination Emax” value (A101D (Melanoma)) was 1, the “combination Emax” value [6] was 0.858 and the “combination Emax” value (EW-7 (Ewing's Sarcoma)) was 0.725. The “combination Emax” value [7] was 1, the “combination Emax” value (WM1552C (Melanoma)) was 0.929 and the “combination Emax” value [8] was 0.427. The “combination Emax” value [9] was 0.862, the “combination Emax” value [10] was 0.201 and the “combination Emax” value [11] was 0.356. The “combination Emax” value (KP-N-YN (Neuroblastoma)) was 0.256 and the “combination Emax” value [12] was 0.783.
`Cc1c2c(nn1C)CSCc1cc(n(C)n1)CSc1cc(c3ccccc3c1)OCCCc1c(C(=O)O)n(C)c3c-2c(Cl)ccc13` [AZD5991] + C=CCn1c(=O)c2cnc(Nc3ccc(N4CCN(C)CC4)cc3)nc2n1-c1cccc(C(C)(C)O)n1 [AZD1775] (first compound max 1 µM, partner max 1 µM) was tested, and the “combination Emax” value (PEO1 (Ovarian Carcinoma)) was 0.397, the “combination Emax” value [1] was 0.763 and the “combination Emax” value [2] was 0.611. The “combination Emax” value [3] was 0.19, the “combination Emax” value (COLO-792 (Melanoma)) was 0.988 and the “combination Emax” value (EB2 (Burkitt's Lymphoma)) was 0.769. The “combination Emax” value [4] was 0.97, the “combination Emax” value [5] was 0.55 and the “combination Emax” value (NB13 (Neuroblastoma)) was 0.902. The “combination Emax” value (A101D (Melanoma)) was 1, the “combination Emax” value [6] was 1 and the “combination Emax” value (EW-7 (Ewing's Sarcoma)) was 0.919. For the same compound, the “combination Emax” value [7] was 0.972, the “combination Emax” value (WM1552C (Melanoma)) was 0.779 and the “combination Emax” value [8] was 0.478. For the same compound, the “combination Emax” value [9] was 0.905, the “combination Emax” value [10] was 0.289 and the “combination Emax” value [11] was 0.451. For the same compound, the “combination Emax” value (KP-N-YN (Neuroblastoma)) was 0.912 and the “combination Emax” value [12] was 0.951.
